Test results from patent publication US10654847B2, “Substituted 2-(4-heterocyclylbenzyl)isoindolin-1-one analogs as positive allosteric modulators of the muscarinic acetylcholine receptor M1” (Vanderbilt University, priority 2011, dated 2020).

Biological target: T1, mAChR M1 (UniProt P11229)
T1 sequence (P11229 1-460): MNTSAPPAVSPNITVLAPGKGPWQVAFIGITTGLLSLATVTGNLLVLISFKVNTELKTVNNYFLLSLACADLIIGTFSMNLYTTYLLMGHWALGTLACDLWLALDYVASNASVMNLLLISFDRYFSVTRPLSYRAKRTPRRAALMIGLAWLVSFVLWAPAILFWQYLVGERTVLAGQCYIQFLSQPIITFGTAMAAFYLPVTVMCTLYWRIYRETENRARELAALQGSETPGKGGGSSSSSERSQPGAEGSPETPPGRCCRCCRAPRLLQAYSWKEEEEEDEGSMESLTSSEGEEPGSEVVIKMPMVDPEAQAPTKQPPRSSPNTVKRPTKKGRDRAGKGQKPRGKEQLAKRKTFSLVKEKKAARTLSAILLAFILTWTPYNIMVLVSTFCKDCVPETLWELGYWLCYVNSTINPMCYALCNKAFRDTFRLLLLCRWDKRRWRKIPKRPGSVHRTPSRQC
Assay: mAChR M1 cell-based functional assay (calcium mobilization, potentiation of EC20 acetylcholine response)
Settings: for Emax (%): % ACh maximum at 30 μM, mAChR M1-expressing CHO-K1 cells, calcium flux; for pEC50 / EC50: positive allosteric modulation of EC20 ACh response, mAChR M1 CHO-K1 cells; for pEC50: <5 estimated where no plateau; for EC50: >10 μM estimated where no plateau, read-out: EC50
Experimental: Chinese hamster ovary (CHO-K1) cells stably expressing rat (r)M1 were purchased from the American Type Culture Collection and cultured according to their indicated protocol. […] To make stable rM2, hM2, rM3, hM4, and rM4 cell lines for use in calcium mobilization assays, these cells also were stably transfected with a chimeric G-protein (Gqi5) (provided by B. R. Conklin, University of California, San Francisco) using Lipofectamine 2000. rM1, hM1, rM3, hM3, rM5, and hM5 cells were grown in Ham's F-12 medium containing 10% heat-inactivated fetal bovine serum (FBS), 20 mM HEPES, and 50 μg/mL G418 sulfate. rM2-Gqi5, hM2-Gqi5, and hM4-Gqi5 cells were grown in the same medium also containing 500 μg/mL Hygromycin B. Stable rM4-Gqi5 cells were grown in DMEM containing 10% heat-inactivated FBS, 20 mM HEPES, 400 μg/mL G418 sulfate, and 500 μg/mL Hygromycin B.
For high throughput measurement of agonist-evoked increases in intracellular calcium, CHO-K1 cells stably expressing muscarinic receptors were plated in growth medium lacking G418 and hygromycin at 15,000 cells/20 μL/well in Greiner 384-well black-walled, tissue culture (TC)-treated, clear-bottom plates (VWR). Cells were incubated overnight at 37° C. and 5% CO2. […] Compound master plates were formatted in an 11 point CRC format (1:3 dilutions) in 100% DMSO with a starting concentration of 10 mM using the BRAVO liquid handler (Agilent). Test compound CRCs were then transferred to daughter plates (240 nL) using the Echo acoustic plate reformatter (Labcyte, Sunnyvale, Calif.) and then diluted into assay buffer (40 μL) to a 2× stock using a Thermo Fisher Combi (Thermo Fisher Scientific, Waltham, Mass.).
Calcium flux was measured using the Functional Drug Screening System (FDSS) 6000 (Hamamatsu Corporation, Tokyo, Japan) as an increase in the fluorescent static ratio. Compounds were applied to cells (20 μL, 2×) using the automated system of the FDSS 6000 at 4 s into the 300 s protocol and the data were collected at 1 Hz. […] Agonist activity was analyzed as a concentration-dependent increase in calcium mobilization upon compound addition. Positive allosteric modulator activity was analyzed as a concentration-dependent increase in the EC20 acetylcholine response. Antagonist activity was analyzed as a concentration-dependent decrease in the EC80 acetylcholine response. Concentration-response curves were generated using a four-parameter logistical equation in XLfit curve fitting software (IDBS, Bridgewater, N.J.) for Excel (Microsoft, Redmond, Wash.) or Prism (GraphPad Software, Inc., San Diego, Calif.).
The above described assay was also operated in a second mode where an appropriate fixed concentration of the present compounds were added to the cells after establishment of a fluorescence baseline for about 3 seconds, and the response in cells was measured. […] Data were reduced as described above and the EC50 values for the agonist in the presence of test compound were determined by nonlinear curve fitting. A decrease in the EC50 value of the agonist with increasing concentrations of the present compounds (a leftward shift of the agonist concentration-response curve) is an indication of the degree of muscarinic positive allosteric modulation at a given concentration of the present compound. An increase in the EC50 value of the agonist with increasing concentrations of the present compounds (a rightward shift of the agonist concentration response curve) is an indication of the degree of muscarinic antagonism at a given concentration of the present compound. The second mode also indicates whether the present compounds also affect the maximum response of the muscarinic receptor to agonists.
The calcium mobilization assay was also used to determine “efficacy”.

Row | Emax (%) | pEC50 | EC50 [µM] | Structure (SMILES)
1 | 48 | 5.90 | 1.26 | CN(C)c1ccc(-c2ccc(CN3Cc4cccnc4C3=O)c(F)c2)cn1 [Example B78]
2 | 56 | 6.30 | 0.501 | Cn1cc2cc(-c3ccc(CN4Cc5ncccc5C4=O)cc3)ccc2n1 [Example B59]
3 | 68 | 6.91 | 0.123 | Cc1n[nH]c2ccc(-c3cc(F)c(CN4Cc5ncccc5C4=O)c(F)c3)cc12 [Example B102]
4 | <30 | <5.00 | > 10 | O=S1(=O)c2ccccc2CN1Cc1ccc(-c2coc(-c3ccccc3)n2)cc1 [Example B120]
5 | 38 | <5.00 | > 10 | O=C1c2ncccc2CN1Cc1ccc(-c2cncc(Cl)c2)cc1F [Example B73]
6 | 71 | 5.88 | 1.32 | O=C1c2cccnc2CN1Cc1c(F)cc(-c2ccc3cncn3c2)cc1F [Example B100]
7 | 62 | 5.83 | 1.48 | O=C1c2ncccc2CN1Cc1ccc(-c2ccc3cnccc3c2)cc1F [Example B79]
8 | 56 | 5.07 | 8.51 | Cn1cc2ccc(-c3ccc(F)c(CN4Cc5ncccc5C4=O)c3)cc2n1 [Example B108]
9 | 41 | 5.42 | 3.8 | Cn1cc2cc(-c3cccc(CN4Cc5ncccc5C4=O)c3F)ccc2n1 [Example B106]
10 | 56 | <5.00 | > 10 | O=C1c2ncccc2CN1Cc1ccc(-c2ccncc2)cc1Cl [Example B68]
11 | 70 | 5.82 | 1.51 | COc1cc(-c2cccc3nn(C)cc23)ccc1CN1Cc2ncccc2C1=O [Example B104]
12 | 41 | 5.44 | 3.63 | O=C1c2cccnc2CN1Cc1ccc(-c2cccc3ncccc23)cc1F [Example B42]
13 | <30 | <5.00 | > 10 | Cc1noc(-c2ccc(CN3Cc4ccccc4S3(=O)=O)cc2)n1 [Example B118]
14 | 79 | 5.55 | 2.8 | Cn1cc(-c2ccc(CN3Cc4ccncc4C3=O)c(F)c2)cn1 [Example B8]
15 | 52 | 5.87 | 1.35 | O=C1c2ncccc2CN1Cc1ccc(-c2ccc3cnccc3c2)cc1Cl [Example B69]
16 | 68 | 5.22 | 6.03 | Cn1cc2c(-c3cc(F)c(CN4Cc5ncccc5C4=O)cc3F)cccc2n1 [Example B87]
17 | 63 | 5.59 | 2.6 | Cn1cc(-c2ccc(CN3Cc4cc(F)cc(F)c4C3=O)c(F)c2)cn1 [Example B7]
18 | 70 | 6.13 | 0.741 | O=C1c2cccnc2CN1Cc1ccc(-c2ccc3cn[nH]c3c2)cc1F [Example B40]
19 | <30 | <5.00 | > 10 | O=S1(=O)c2ccccc2CN1Cc1ccc(-n2cccc2)cc1 [Example B125]
20 | 62 | 5.51 | 3.1 | Cn1ccc2ccc(-c3ccc(CN4Cc5ccccc5C4=O)c(F)c3)cc21 [Example B10]

More lines, now with the values behind:

Row | Structure (SMILES) | Emax (%) | pEC50 | EC50 [µM]
21 | Cn1cc2c(-c3cccc(CN4Cc5ncccc5C4=O)c3F)cccc2n1 [Example B109] | 36 | 5.14 | 7.24
22 | Cn1cc(-c2ccc(CN3Cc4ncccc4C3=O)c(F)c2)cn1 [Example B9] | 83 | 5.55 | 2.8
23 | O=C1Cc2cc(-c3ccc(CN4Cc5ncccc5C4=O)c(F)c3)ccc2N1 [Example B86] | 58 | 6.25 | 0.562
24 | Cc1cc(-c2ccc(CN3Cc4ncccc4C3=O)c(F)c2)cnc1Cl [Example B46] | 33 | 5.99 | 1.02
25 | CN1Cc2ccc(-c3cc(F)c(CN4Cc5ncccc5C4=O)c(F)c3)cc2C1 [Example B107] | 56 | 5.76 | 1.74
26 | O=C1c2cccnc2CN1Cc1ccc(-c2cnc3ccccn23)cc1F [Example B93] | 65 | 5.53 | 2.95
27 | Cc1cc(-c2ccc(CN3Cc4ncccc4C3=O)c(F)c2)cnc1F [Example B34] | 37 | 5.60 | 2.51
28 | Cn1cc(-c2ccc(CN3Cc4cccnc4C3=O)c(F)c2)cn1 [Example B25] | 66 | <5.00 | > 10
29 | Cn1cc2cc(-c3ccc(CN4Cc5ncncc5C4=O)c(F)c3)ccc2n1 [Example B56] | 80 | 6.40 | 0.398
30 | O=C1c2cccnc2CN1Cc1ccc(-c2ccc3cnccc3c2)cc1F [Example B44] | 65 | 6.04 | 0.912
31 | Cn1cc(-c2cnc(CN3Cc4cccnc4C3=O)c(F)c2)cn1 [Example B20] | 43 | <5.00 | > 10
32 | Cn1cc2c(n1)CCN(c1ccc(CN3Cc4ncccc4C3=O)c(F)c1)C2 [Example B112] | 32 | <5.00 | > 10
33 | Cn1ncc2cc(-c3ccc(CN4Cc5ncccc5C4=O)c(F)c3)ccc21 [Example B27] | 58 | 6.1 | 0.794
34 | O=C1c2cccnc2CN1Cc1ccc(-c2cncc(Cl)c2)cc1F [Example B31] | 35 | 5.34 | 4.57
35 | Cn1cc2cc(-c3ccc(CN4Cc5cccnc5C4=O)c(F)c3)ccc2n1 [Example B71] | 72 | 6.15 | 0.708
36 | Cn1cc2c(-c3ccc(CN4Cc5cccnc5C4=O)c(F)c3)cccc2n1 [Example B62] | 72 | 6.07 | 0.851
37 | CN(C)c1ccc(-c2ccc(CN3Cc4cccnc4C3=O)c(Cl)c2)cn1 [Example B74] | 58 | 5.73 | 1.86
38 | O=C1c2cccnc2CN1Cc1ccc(-c2cnc3ccccc3c2)cc1F [Example B37] | 31 | 6.41 | 0.389
39 | O=C1c2cccnc2CN1Cc1c(F)cc(-c2ccc3c(c2)OCCO3)cc1F [Example B94] | 36 | 6.71 | 0.195
40 | O=C1c2cccnc2CN1Cc1ccc(-c2ccc3ncccc3c2)cc1F [Example B48] | 65 | 6.08 | 0.832
41 | O=C1c2cccnc2CN1Cc1ccc(-c2ccc3cncn3c2)cc1F [Example B92] | 62 | 6.06 | 0.871
